Measurements from US9238632B2, “3-cyanoanilinoalkylarylpiperazine derivative and use thereof in preparing drugs” (NHWA Pharma. Corporation, priority 2012, dated 2016).
Structures can show the parent of a compound that is named as a salt.

What was measured:
[1] = system: rat formalin induced pain model; experiment: Rat formalin induced pain model (leg-raising times); assay type: in vivo, SD rats; details: 100 mg/kg intragastric, formalin 1 h later; Mean ± SD, n=10
Text: Rat formalin induced pain model is used to test in vivo analgesic effect of hydrochloride of compound III-10.
Rat formalin induced pain model is established by Dubuisson and Dennis in 1977. It can simulate some characteristics of human pains after damages, and its persistent tension pain is similar to common clinical chronic pains. Its experimental results have excellent repeatability, and it is considered to be universally accepted pain model which is more reliable than short-term mechanical or thermal stimulation models. It has been generally used in investigation and determination of pain mechanism, pain physiology and pharmacology, screening of the analgesic effects of drugs and evaluation of analgesic drugs.
Test compounds are prepared to relevant doses with 0.5% CMC-Na before use.
Formaldehyde solution: batch number HN20041109, HuaDong reagent industrial company. In experiment, it is diluted to 5% formaldehyde solution with 0.9% sodium chloride injection.
90 SD rats of weight (240-350 g), half female and half male, are fed for I week to adapt the environment, with 5 in each cage during feeding, the rats are fed under standard condition during experiments with free access to water and food.
90 SD rats of weight 240-350 g are randomly divided into 9 groups which are negative control group, model group, gabapentin group, high, median and low dosage group of each compound respectively, with 10 rats in each group, half female and half male. Relevant test compounds are given by intragastric administration, and 5% formalin (50 ul) is subcutaneously injected at the left rear foot in 1 h to model, formation of pichu indicates a successful modeling. 0.5% (weight percentage) CMC-Na is given by intragastric administration in negative control group, and normal saline (50 ul) is subcutaneously injected at the bottom of right rear foot in 1 h. After modeling, the leg-raising times in 1-2 minutes and 5-6 minutes are observed. The time period 10-60 minutes are divided into 5 minutes intervals, and the leg-raising times of the first minute of each interval (10-11, 15-16, 20-21, 25-26, 30-31, 35-36, 40-41, 45-46, 50-51, 55-56, 60-61) are observed.
Measuring index is expressed as mean±standard deviation (Mean±SD), comparison is analyzed with One-way ANOVA.

5-HT1A receptor = target: T1, 5-HT1A receptor (Rattus norvegicus, UniProt P19327); experiment: In vitro competitive binding test to 5-HT1A receptor ([3H]-8-OH-DPAT, rat cerebral cortex membranes); details: 10 μmol/L compound; hydrochloride salts; rat cerebral cortex membrane; unit (I %); read-out: 5-HT1A affinity [3H]-8-OH-DPAT (inhibition rate of radioligand binding)
T1 construct: The supernatant is discarded and the precipitate (membrane receptor) is stocked; from tissue; host or cells: SD rat cerebral cortex membranes
T1 sequence (P19327 1-422): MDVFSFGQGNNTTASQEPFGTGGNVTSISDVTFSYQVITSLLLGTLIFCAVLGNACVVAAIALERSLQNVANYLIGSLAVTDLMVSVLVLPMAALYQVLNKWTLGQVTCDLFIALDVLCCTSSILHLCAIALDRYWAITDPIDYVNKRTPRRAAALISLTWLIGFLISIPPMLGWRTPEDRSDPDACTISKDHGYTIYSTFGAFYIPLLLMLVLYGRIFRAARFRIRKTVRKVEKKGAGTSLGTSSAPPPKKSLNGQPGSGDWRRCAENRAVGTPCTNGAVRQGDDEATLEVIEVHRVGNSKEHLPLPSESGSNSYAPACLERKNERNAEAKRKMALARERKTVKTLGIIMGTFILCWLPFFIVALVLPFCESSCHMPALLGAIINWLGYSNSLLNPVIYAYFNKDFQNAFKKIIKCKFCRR
Protocol: (§1) Animals: clean grade SD rats, female and male, 250-300 g, purchased from Nanjing QingLongshan animal breeding center.
(§2) Radioligand: [^3H]-8-OH-DPAT, [^3H]-Ketanserin, purchased from PerkinElmer company; 5-HT and Methysergide, purchased from Sigma company.
Preparation of 5-HT1A buffer solution: Tris-HCl buffer solution (0.05M, 1000 ml) is added with certain amount of ascorbic acid, pargyline and CaCl2, to give final concentrations of 0.1%(ascorbic acid), 10 um (pargyline) and 4 mM (CaCl2) separately.
(§3) Preparation of radioligand: 50 μl mother liquor is diluted to 5 ml with anhydrous ethanol, and stocked for use.
(§4) Preparation of non-labeling ligand: appropriate amounts of 5-HT and Methysergide are dissolved in ultrapure water to give solutions with final concentrations of 2*10^−5M respectively.
(§5) Preparation of solutions of various test drugs: appropriate amount of each drug is first diluted to 1 ml with ultrapure water as stock solution. When needed, 10 μl of the stock solution is diluted to 1 ml to reach a level of 10^−5M.
(§6) Rats are decapitated to get the brains. The target tissues (left and right cerebral cortex) are separated on ice, added with 10-fold volume (V/W) of ice-cold buffer, and homogenized with tissue Homogenizer for several seconds 3 times to form tissue homogenate. The tissue homogenate is centrifuged with low temperature superb centrifuge (12000 r/min) 3 times, with each for 20 minutes. The supernatant is discarded and the precipitate (membrane receptor) is stocked in −80° C. ultralow temperature freezer.
(§7) The membrane receptor is added with certain volume of ice-cold buffer and homogenized to make membrane receptor solutions at certain concentrations.
(§8) Various reaction solutions are added in the following sequences and ratios:
(§9) Total binding tube: 100 μl membrane receptor+100 μl buffer+10 μl radioligand
(§10) Non-specific tube: 100 μl membrane receptor+100 μl non-labeling ligand+10 μl radioligand
(§11) Test compound tube: 100 μl membrane receptor+100 μl drug solution+10 μl radioligand
(§12) Above tubes are put in 37° C. water bath immediately after finishing adding radioligand into each of them and then incubated for 25 min. After 25 min, the tubes are put in ice water to quench the reaction. Each tube is poured into suction filtration device to filter, and the filter membrane is washed with 5-10 ml ice-cold buffer twice. The filter membrane is dried in 85° C. oven, and then put into test tubes, and added with certain amount of scintillation liquid to soak overnight. Radioactivity is determined using liquid scintillation counter.
(§13) Each compound is tested in duplicate, and the tests are carried out independently twice.

5-HT2A receptor = target: T2, 5-HT2A receptor (Rattus norvegicus, UniProt P14842); experiment: In vitro competitive binding test to 5-HT2A receptor ([3H]-Ketanserin, rat cerebral cortex membranes); details: 10 μmol/L compound; hydrochloride salts; rat cerebral cortex membrane; unit (I %); read-out: 5-HT2A affinity [3H]-Ketanserin (inhibition rate of radioligand binding)
T2 construct: The supernatant is discarded and the precipitate (membrane receptor) is stocked; from tissue; host or cells: SD rat cerebral cortex membranes
T2 sequence (P14842 whole entry): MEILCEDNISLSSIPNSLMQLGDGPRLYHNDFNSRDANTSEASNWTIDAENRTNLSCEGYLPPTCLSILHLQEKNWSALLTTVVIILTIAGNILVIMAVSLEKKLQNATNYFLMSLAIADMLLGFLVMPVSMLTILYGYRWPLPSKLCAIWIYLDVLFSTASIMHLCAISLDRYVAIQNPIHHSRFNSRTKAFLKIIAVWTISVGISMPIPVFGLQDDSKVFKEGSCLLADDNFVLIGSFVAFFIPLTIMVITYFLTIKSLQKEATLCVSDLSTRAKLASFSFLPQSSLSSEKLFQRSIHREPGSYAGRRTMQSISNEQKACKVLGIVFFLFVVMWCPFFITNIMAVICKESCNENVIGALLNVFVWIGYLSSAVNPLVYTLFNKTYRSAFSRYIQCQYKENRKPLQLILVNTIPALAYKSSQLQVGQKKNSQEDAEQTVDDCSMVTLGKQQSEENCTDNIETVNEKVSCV
Protocol: as §1, §2
Preparation of 5-HT2A buffer solution: Tris (6.05 g) is dissolved in ultrapure water (1000 ml). PH is adjusted to 7.4 with HCl. Tris-HCl buffer solution (0.05M) is used.
as §3, §4, §5, §6, §7, §8, §9, §10, §11, §12, §13

hSERT = hSERT (Homo sapiens, UniProt P31645); experiment: In vitro inhibition of serotonin reuptake ([3H]-5-HT) in cells stably expressing hSERT; details: for inhibition at 10 µM: read-out: Inhibition rates of SERT reuptake [3H]-5-HT
Sequence of hSERT (P31645 whole entry): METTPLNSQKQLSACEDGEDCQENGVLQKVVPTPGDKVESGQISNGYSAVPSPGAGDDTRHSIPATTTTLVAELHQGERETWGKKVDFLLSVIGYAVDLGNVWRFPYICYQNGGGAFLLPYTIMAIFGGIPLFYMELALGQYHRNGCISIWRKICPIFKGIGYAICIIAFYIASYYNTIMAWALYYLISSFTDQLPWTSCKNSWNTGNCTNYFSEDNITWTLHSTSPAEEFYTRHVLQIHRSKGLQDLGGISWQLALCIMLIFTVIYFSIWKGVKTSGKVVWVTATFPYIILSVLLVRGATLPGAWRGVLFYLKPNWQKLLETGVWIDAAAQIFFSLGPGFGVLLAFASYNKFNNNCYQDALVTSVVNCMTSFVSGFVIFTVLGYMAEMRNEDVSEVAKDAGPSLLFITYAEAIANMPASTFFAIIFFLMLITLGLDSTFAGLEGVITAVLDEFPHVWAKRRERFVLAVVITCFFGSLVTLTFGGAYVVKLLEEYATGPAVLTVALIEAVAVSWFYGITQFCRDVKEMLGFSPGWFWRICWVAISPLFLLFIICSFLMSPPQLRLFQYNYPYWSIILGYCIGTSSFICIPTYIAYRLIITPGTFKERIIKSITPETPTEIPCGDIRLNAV
Protocol: Positive control compound: fluoxetine.
Sample treatment: about 1 mg of compound is weighted and added with relative amount of DMSO to prepare 10^−2M stock solution. Before use, the stock solution is diluted with HBSS buffer to relative concentrations. Each sample is dissolved in DMSO completely. The dilution is clear and without obvious cloudy and formation of precipitate after adding with buffer.
(1) Cells which can stably express hSERT are seeded into 24-well plates respectively.
(2) Experiments are started when the cell confluence reaches 80-90%.
(3) Liquids in the plates are discarded, the plates are washed with PBS twice at room temperature.
(5) Plates are incubated at 37° C. for 10 min after slight oscillation.
(6) Then 20 μl radioisotope is added (cpm: about 20000).
(7) Plates are incubated at 37° C. for 5 min after slight oscillation.
(8) Liquids in the plates are discarded, the plates are washed with ice-cold PBS twice, all the liquids in the plates are removed away.
(9) NaOH (2M, 100 μl) is added into each well to lyse the cells. All the lysates are combined and put on GF/C glass fiber filter paper.
(10) The filter papers are dried and put in 0.5 ml centrifuge tube, 500 μl lipid soluble scintillation liquid are added. Radioactivity is determined by MicroBeta liquid scintillation counter. Each concentration is tested intriplicate, and tests are carried out independently twice.
Test concentration is 10 μmol/L. The positive drug provided is set as control (10 μmol/L) in each experiment. The experimental processes are the same as the above process.

[2] = Acute toxicity study, single drench to mice (LD50, Bliss method); details: mouse, in vivo, oral, hydrochloride
Text: Bliss method is used for statistics.

[3] = system: Salmonella typhimurium histidine auxotrophic mutants TA97, TA98, TA100 and TA102; experiment: Bacterial reverse mutation test (Ames test); details: −S9 and +S9, all dosages
Protocol: Strains: Salmonella typhimurium histidine auxotrophic mutants TA97, TA98, TA100 and TA102.
Results: the experiments include two parts of −S9 and +S9. In the test system without S9, TA98 5000 μg/dish has antibacterial activity, and in the test system with S9, TA97 5000 μg/dish has antibacterial activity. Other dosages have no antibacterial activity to any of the strains, and the growth background is excellent. […] Ames test is negative.

[4] = system: mice tail suspension test; experiment: Mice tail suspension test (immobility time); assay type: in vivo, KM mice; details: 40 mg/kg intragastric, 1 h post dose, last 4 min of 6 min, n=10, mean ± SD
Protocol: Control drug: duloxetine hydrochloride, fluoxetine hydrochloride
A few days before the experiment, mice with qualified body weight are selected and divided into groups. The experiments are carried out in 2 days. In D1, mice are put on bar of tail suspension instrument for 6 min, the immobility time of the last 4 min are recorded. […] Blank control group, positive control group and each test compound group are set.
The mean values of immobility time for each group are calculated, the results are expressed as “mean±standard deviation”.

Structure (SMILES) | inhibition at 10 µM (5-HT1A receptor) [%] | inhibition at 10 µM (5-HT2A receptor) [%] | inhibition at 10 µM (hSERT) [%] | also measured
NCC1(CC(=O)O)CCCCC1 [Gabapentin, gabapentin, reference compound] |  |  |  | phase I times (leg-raising times) [1]: 11.60 ± 6.75 time; phase II times (leg-raising times) [1]: 74.7 ± 39.45 time
COc1ccccc1N1CCN(CCN(C)c2cccc(C#N)c2)CC1 [III-1, 3-((2-(4-(2-methoxyphenyl)piperazin-1-yl)ethyl)methylamino)benzonitrile] | 154 | 98.9 | 97.3 | 
CN(CCN1CCN(c2cccc(C(F)(F)F)c2)CC1)c1cccc(C#N)c1 [III-2, 3-(methyl(2-(4-(3-trifluoromethylphenyl)piperazin-1-yl)ethyl)amino)benzonitrile] | 119 | 131 | 97.8 | 
CN(CCN1CCN(c2cccc(Cl)c2)CC1)c1cccc(C#N)c1 [III-3, 3-((2-(4-(3-chlorophenyl)piperazin-1-yl)ethyl)methylamino)benzonitrile] | 155 | 107 | 98.3 | 
CN(CCN1CCN(c2cccc(Cl)c2Cl)CC1)c1cccc(C#N)c1 [III-4, 3-((2-(4-(2,3-dichlorophenyl)piperazin-1-yl)ethyl)methylamino)benzonitrile] | 126 | 104 | 93.4 | 
Cc1cccc(N2CCN(CCN(C)c3cccc(C#N)c3)CC2)c1C [III-5, 3-((2-(4-(2,3-dimethylphenyl)piperazin-1-yl)ethyl)methylamino)benzonitrile] | 121 | 134 | 99.7 | 
COc1c(Cl)ncnc1N1CCN(CCN(C)c2cccc(C#N)c2)CC1 [III-6, 3-((2-(4-(6-chloro-5-methoxylpyrimidin-1-yl)piperazin-1-yl)ethyl)methylamino)benzonitrile] | 91.6 | 84.5 | 98.3 | 
COc1cncnc1N1CCN(CCN(C)c2cccc(C#N)c2)CC1 [III-7] | 83.2 | 101 | 81.7 | 
CN(CCCN1CCN(c2cccc(C(F)(F)F)c2)CC1)c1cccc(C#N)c1 [III-8, 3-(methyl(3-(4-(3-trifluoromethylphenyl)piperazin-1-yl)propyl)amino)benzonitrile] | 108 | 111 | 98.3 | LD50 [2]: 1800 mg/kg; Ames test (colony reverse mutations) [3]: negative; IC50 (hSERT): 246 ± 94 nM; inhibition effect to 5-HT reuptake compared with fluoxetine (hSERT): comparable to that of fluoxetine
COc1ccccc1N1CCN(CCCN(C)c2cccc(C#N)c2)CC1 [III-9, 3-((3-(4-(2-methoxyphenyl)piperazin-1-yl)propyl)methylamino)benzonitrile] | 125 | 154 | 104 | 
Cc1cccc(N2CCN(CCCN(C)c3cccc(C#N)c3)CC2)c1C [III-11, 3-((3-(4-(2,3-dimethylphenyl)piperazin-1-yl)propyl)methylamino)benzonitrile] | 102 | 145 | 96.6 | 
COc1cncnc1N1CCN(CCCN(C)c2cccc(C#N)c2)CC1 [III-12] | 114 | 132 | 94.4 | 
CN(CCCN1CCN(c2cccc(Cl)c2Cl)CC1)c1cccc(C#N)c1 [III-13, 3-((3-(4-(2,3-dichlorophenyl)piperazin-1-yl)propyl)methylamino)benzonitrile] | 119 | 149 | 86.9 | 
CCN(CCCN1CCN(c2ccccc2OC)CC1)c1cccc(C#N)c1 [III-14, 3-((3-(4-(2-methoxyphenyl)piperazin-1-yl)propyl)ethylamino)benzonitrile] | 112 | 135 | 98.2 | 
CNCC[C@H](Oc1cccc2ccccc12)c1cccs1 [dutoxetine, duloxetine hydrochloride] |  |  |  | Immobility time ([4]; hydrochloride): 28.2 ± 27.3 S; Immobility time ([4]; listed as dutoxetine hydrochloride, hydrochloride): significantly decreased immobility time
CNCCC(Oc1ccc(C(F)(F)F)cc1)c1ccccc1 (stereo not shown) [fluoxetine] |  |  |  | Immobility time [4]: 69.9 ± 27.4 S; Immobility time ([4]; listed as fluoxetine hydrochloride): significantly decreased immobility time
